Assays:
Experiment in all cases: TR-FRET enzymatic activity assay against PI3K isoforms
Type in all cases: biochemical
PI3Kδ = PI3Kδ (Homo sapiens (Human), UniProt O00329); settings: 2×Km ATP, 30 minutes at 25° C.
Excerpt: (§1) The compounds of formula (I) were characterized for their enzymatic activity against the PI3K isoforms. […] TR-FRET monitored the formation of 3,4,5-inositol triphosphate molecule that competed with fluorescently labeled PIP3 for binding to the GRP-1 pleckstrin homology domain protein.

PI3Kβ = PI3Kβ (Homo sapiens (Human), UniProt P42338); settings: PI3Kβ, TR-FRET, 2×Km ATP, 30 minutes at 25° C.
Chain of PI3Kβ (P42338 whole entry): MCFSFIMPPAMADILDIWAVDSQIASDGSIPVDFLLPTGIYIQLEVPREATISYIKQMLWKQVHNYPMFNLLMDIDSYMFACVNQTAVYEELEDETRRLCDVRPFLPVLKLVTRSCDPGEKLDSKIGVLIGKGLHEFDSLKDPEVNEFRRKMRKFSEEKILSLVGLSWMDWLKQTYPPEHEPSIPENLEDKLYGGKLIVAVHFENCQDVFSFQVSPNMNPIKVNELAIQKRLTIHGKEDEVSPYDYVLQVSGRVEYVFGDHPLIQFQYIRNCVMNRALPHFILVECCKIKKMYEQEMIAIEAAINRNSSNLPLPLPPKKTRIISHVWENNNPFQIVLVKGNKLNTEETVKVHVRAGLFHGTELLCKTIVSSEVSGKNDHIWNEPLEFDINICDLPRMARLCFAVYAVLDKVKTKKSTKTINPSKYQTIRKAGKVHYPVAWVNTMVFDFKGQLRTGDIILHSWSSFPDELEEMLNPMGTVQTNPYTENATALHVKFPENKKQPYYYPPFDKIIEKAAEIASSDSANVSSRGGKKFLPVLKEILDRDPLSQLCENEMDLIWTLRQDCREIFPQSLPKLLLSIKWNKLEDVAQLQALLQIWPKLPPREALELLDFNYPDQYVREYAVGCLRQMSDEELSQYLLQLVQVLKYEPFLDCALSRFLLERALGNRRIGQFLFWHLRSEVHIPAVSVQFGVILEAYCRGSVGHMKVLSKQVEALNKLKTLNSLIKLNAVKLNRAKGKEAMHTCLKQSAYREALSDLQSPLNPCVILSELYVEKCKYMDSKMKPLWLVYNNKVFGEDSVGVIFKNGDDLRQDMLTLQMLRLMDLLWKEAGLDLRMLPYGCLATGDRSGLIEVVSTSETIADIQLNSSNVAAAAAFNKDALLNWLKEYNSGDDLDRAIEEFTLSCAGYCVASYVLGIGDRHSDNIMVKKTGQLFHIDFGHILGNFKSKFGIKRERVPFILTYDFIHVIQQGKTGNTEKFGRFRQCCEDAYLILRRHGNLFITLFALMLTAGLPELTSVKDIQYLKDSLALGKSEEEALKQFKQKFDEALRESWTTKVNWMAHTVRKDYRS
Chain of PI3Kβ (P27986 whole entry partner): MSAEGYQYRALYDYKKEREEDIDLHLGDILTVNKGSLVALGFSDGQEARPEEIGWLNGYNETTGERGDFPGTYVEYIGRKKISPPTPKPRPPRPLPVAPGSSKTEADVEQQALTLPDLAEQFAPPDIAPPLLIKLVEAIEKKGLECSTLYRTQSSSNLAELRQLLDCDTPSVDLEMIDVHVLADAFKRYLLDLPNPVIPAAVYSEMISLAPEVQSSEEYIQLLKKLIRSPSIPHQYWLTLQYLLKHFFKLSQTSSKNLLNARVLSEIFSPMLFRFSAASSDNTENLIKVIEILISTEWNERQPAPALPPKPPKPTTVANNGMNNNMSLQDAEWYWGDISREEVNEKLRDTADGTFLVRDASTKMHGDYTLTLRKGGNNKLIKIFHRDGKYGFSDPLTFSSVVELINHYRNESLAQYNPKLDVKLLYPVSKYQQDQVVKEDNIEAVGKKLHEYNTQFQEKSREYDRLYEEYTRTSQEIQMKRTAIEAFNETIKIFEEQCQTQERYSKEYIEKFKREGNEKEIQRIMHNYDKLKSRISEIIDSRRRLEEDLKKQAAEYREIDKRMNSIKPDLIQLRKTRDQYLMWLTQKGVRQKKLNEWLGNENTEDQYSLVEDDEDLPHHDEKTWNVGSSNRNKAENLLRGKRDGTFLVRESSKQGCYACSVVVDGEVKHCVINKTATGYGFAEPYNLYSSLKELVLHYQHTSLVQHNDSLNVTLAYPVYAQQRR
Excerpt: as §1

PI3Kγ = PI3Kγ (Homo sapiens (Human), UniProt P48736); settings: 2×Km ATP, 30 minutes at 25° C.
Chain of PI3Kγ (P48736 whole entry): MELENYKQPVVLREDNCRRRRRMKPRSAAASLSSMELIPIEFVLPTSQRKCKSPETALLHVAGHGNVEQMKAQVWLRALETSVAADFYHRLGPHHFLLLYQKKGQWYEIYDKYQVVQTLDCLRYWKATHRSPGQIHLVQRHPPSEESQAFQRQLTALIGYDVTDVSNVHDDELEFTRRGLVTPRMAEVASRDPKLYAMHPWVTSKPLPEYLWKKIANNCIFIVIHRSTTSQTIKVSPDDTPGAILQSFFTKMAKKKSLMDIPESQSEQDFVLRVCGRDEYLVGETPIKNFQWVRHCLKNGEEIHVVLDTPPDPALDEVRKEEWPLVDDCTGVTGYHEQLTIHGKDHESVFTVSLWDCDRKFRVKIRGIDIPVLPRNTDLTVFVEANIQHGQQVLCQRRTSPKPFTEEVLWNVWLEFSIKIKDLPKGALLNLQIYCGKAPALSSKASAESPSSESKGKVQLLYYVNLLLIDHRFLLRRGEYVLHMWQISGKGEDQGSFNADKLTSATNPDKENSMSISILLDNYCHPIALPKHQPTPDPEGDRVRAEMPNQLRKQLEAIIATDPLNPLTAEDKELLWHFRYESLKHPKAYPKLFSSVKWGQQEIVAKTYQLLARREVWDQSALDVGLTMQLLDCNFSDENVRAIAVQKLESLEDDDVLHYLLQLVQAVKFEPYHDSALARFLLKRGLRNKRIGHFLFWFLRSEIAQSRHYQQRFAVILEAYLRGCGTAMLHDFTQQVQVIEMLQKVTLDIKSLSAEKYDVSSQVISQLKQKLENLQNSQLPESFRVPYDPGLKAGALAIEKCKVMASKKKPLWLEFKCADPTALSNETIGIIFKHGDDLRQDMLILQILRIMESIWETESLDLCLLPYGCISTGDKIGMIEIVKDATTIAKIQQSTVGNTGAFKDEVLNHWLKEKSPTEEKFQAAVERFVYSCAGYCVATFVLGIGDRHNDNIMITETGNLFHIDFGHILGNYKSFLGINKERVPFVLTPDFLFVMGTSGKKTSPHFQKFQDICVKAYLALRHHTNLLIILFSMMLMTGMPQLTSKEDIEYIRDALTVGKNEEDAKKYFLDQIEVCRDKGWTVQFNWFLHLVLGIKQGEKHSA
Excerpt: as §1

Chain of PI3Kδ (O00329 whole entry, the tested form may be a part, canonical isoform): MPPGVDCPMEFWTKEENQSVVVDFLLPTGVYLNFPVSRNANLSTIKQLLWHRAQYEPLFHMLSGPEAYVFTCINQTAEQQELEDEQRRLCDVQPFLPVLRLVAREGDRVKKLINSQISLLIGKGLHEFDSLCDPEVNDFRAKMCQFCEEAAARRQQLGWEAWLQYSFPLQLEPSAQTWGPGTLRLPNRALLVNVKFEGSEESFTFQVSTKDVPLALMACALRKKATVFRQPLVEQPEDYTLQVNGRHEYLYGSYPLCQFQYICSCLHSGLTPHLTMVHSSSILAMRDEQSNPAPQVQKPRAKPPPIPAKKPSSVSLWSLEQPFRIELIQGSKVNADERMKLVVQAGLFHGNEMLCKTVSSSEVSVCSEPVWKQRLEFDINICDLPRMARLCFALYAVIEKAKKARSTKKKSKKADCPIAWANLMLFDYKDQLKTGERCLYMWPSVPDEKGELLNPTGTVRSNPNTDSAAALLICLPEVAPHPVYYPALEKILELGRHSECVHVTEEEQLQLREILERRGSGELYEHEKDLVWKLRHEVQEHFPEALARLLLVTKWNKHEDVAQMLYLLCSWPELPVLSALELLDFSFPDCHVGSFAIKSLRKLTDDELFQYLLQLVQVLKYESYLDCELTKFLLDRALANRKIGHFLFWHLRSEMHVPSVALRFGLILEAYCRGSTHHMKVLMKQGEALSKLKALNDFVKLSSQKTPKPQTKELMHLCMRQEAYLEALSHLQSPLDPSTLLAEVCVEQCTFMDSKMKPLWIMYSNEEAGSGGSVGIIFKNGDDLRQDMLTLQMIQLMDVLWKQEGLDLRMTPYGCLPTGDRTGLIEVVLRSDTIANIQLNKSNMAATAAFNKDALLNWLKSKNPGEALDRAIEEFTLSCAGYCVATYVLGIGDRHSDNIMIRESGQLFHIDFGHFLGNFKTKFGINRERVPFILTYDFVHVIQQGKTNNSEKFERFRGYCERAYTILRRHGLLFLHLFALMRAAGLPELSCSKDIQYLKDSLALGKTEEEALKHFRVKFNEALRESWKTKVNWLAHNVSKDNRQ
Chain of PI3Kδ (P27986 whole entry partner, the tested form may be a part, canonical isoform): as the sequence (P27986 whole entry partner) above

C[C@H](Nc1ncnc(N)c1C#N)c1nc2cccc(Cl)c2c(=O)n1[C@H]1CC[C@H](O)CC1 [Compound 85, (S)-4-amino-6-((1-(5-chloro-3-(4-hydroxycyclohexyl)-4-oxo-3,4-dihydroquinazolin-2-yl)ethyl)amino)pyrimidine-5-carbonitrile]
IC50 (PI3Kδ): 3 nM
IC50 (PI3Kβ): 92 nM
IC50 (PI3Kγ): 1200 nM

C[C@H](Nc1ncnc(N)c1C#N)c1nc2cccc(Cl)c2c(=O)n1CCCCN [Compound 28, (S)-4-amino-6-((1-(3-(4-aminobutyl)-5-chloro-4-oxo-3,4-dihydroquinazolin-2-yl)ethyl)amino)pyrimidine-5-carbonitrile]
IC50 (PI3Kδ): 3 nM
IC50 (PI3Kβ): 100 nM
IC50 (PI3Kγ): ≥ 10000 nM

C[C@H](Nc1ncnc(N)c1C#N)c1nc2cccc(Cl)c2c(=O)n1[C@H]1C[C@@H](O)C1 [Compound 82, 4-amino-6-(((S)-1-(5-chloro-3-((1S,3R)-3-hydroxycyclobutyl)-4-oxo-3,4-dihydroquinazolin-2-yl)ethyl)amino)pyrimidine-5-carbonitrile]
IC50 (PI3Kδ): 5 nM
IC50 (PI3Kβ): 150 nM
IC50 (PI3Kγ): 2300 nM

N#Cc1c(N)nc(N)nc1N[C@H](c1nc2c(Cl)ccc(Cl)c2c(=O)n1CCCC(N)=O)C1CC1 [Compound 65, (S)-4-(5,8-dichloro-2-(cyclopropyl((2,6-diamino-5-cyanopyrimidin-4-yl)amino)methyl)-4-oxoquinazolin-3(4H)-yl)butanamide]
IC50 (PI3Kδ): 1 nM
IC50 (PI3Kβ): 7 nM
IC50 (PI3Kγ): 470 nM

C[C@H](Nc1ncnc(N)c1C#N)c1nc2cccc(Cl)c2c(=O)n1CCC(C)(C)N [Compound 3, (S)-4-amino-6-((1-(3-(3-amino-3-methylbutyl)-5-chloro-4-oxo-3,4-dihydroquinazolin-2-yl)ethyl)amino)pyrimidine-5-carbonitrile]
IC50 (PI3Kδ): 15 nM
IC50 (PI3Kβ): 1300 nM
IC50 (PI3Kγ): ≥ 10000 nM

C[C@H](Nc1ncnc(N)c1C#N)c1nc2cccc(Cl)c2c(=O)n1CCCNCc1ccccc1 [Compound 6, (S)-4-amino-6-((1-(3-(3-(benzylamino)propyl)-5-chloro-4-oxo-3,4-dihydroquinazolin-2-yl)ethyl)amino)pyrimidine-5-carbonitrile]
IC50 (PI3Kδ): 9 nM
IC50 (PI3Kβ): 250 nM
IC50 (PI3Kγ): ≥ 10000 nM

C[C@H](Nc1ncnc(N)c1C#N)c1nc2cccc(Cl)c2c(=O)n1N(CCN)Cc1ccccc1 [Compound 13, (S)-4-amino-6-((1-(3-((2-aminoethyl)(benzyl)amino)-5-chloro-4-oxo-3,4-dihydroquinazolin-2-yl)ethyl)amino)pyrimidine-5-carbonitrile]
IC50 (PI3Kδ): 3300 nM
IC50 (PI3Kβ): 6800 nM
IC50 (PI3Kγ): ≥ 10000 nM

C[C@H](Nc1nc(N)nc(N)c1C#N)c1nc2cccc(Cl)c2c(=O)n1CCCNc1ncccn1 [Compound 4, (S)-2,4-diamino-6-((1-(5-chloro-4-oxo-3-(3-(pyrimidin-2-ylamino)propyl)-3,4-dihydroquinazolin-2-yl)ethyl)amino)pyrimidine-5-carbonitrile]
IC50 (PI3Kδ): 5 nM
IC50 (PI3Kβ): 420 nM
IC50 (PI3Kγ): 660 nM

CC[C@H](Nc1nc(N)nc(N)c1C#N)c1nc2cccc(Cl)c2c(=O)n1CCCS(C)(=O)=O [Compound 117, (S)-2,4-diamino-6-((1-(5-chloro-3-(3-(methylsulfonyl)propyl)-4-oxo-3,4-dihydroquinazolin-2-yl)propyl)amino)pyrimidine-5-carbonitrile]
IC50 (PI3Kδ): 21 nM
IC50 (PI3Kβ): 250 nM
IC50 (PI3Kγ): 3000 nM

NCCCn1c([C@@H](Nc2ncnc3scnc23)C2CC2)nc2cccc(Cl)c2c1=O [Compound 45, (S)-3-(3-aminopropyl)-5-chloro-2-(cyclopropyl(thiazolo[5,4-d]pyrimidin-7-ylamino)methyl)quinazolin-4(3H)-one]
IC50 (PI3Kδ): 4 nM
IC50 (PI3Kβ): 7 nM
IC50 (PI3Kγ): 2100 nM

COCCCn1c([C@H](C)Nc2nc(N)nc(N)c2C#N)nc2c(Cl)ccc(Cl)c2c1=O [Compound 107, (S)-2,4-diamino-6-((1-(5,8-dichloro-3-(3-methoxypropyl)-4-oxo-3,4-dihydroquinazolin-2-yl)ethyl)amino)pyrimidine-5-carbonitrile]
IC50 (PI3Kδ): 3 nM
IC50 (PI3Kβ): 82 nM
IC50 (PI3Kγ): 1700 nM

C[C@H](Nc1ncnc(N)c1C#N)c1nc2cccc(Cl)c2c(=O)n1CCN [Compound 26, (S)-4-amino-6-((1-(3-(2-aminoethyl)-5-chloro-4-oxo-3,4-dihydroquinazolin-2-yl)ethyl)amino)pyrimidine-5-carbonitrile]
IC50 (PI3Kδ): 150 nM
IC50 (PI3Kβ): 740 nM
IC50 (PI3Kγ): ≥ 10000 nM

C[C@H](Nc1nc(N)nc(N)c1C#N)c1nc2cccc(Cl)c2c(=O)n1Cc1cn[nH]c1 [Compound 79, (S)-4-((1-(3-((1H-pyrazol-4-yl)methyl)-5-chloro-4-oxo-3,4-dihydroquinazolin-2-yl)ethyl)amino)-2,6-diaminopyrimidine-5-carbonitrile]
IC50 (PI3Kδ): 2 nM
IC50 (PI3Kβ): 40 nM
IC50 (PI3Kγ): 380 nM

C[C@H](Nc1nc(N)nc(N)c1C#N)c1nc2cccc(Cl)c2c(=O)n1CCN1CCCC1 [Compound 137, (S)-2,4-diamino-6-((1-(5-chloro-4-oxo-3-(2-(pyrrolidin-1-yl)ethyl)-3,4-dihydroquinazolin-2-yl)ethyl)amino)pyrimidine-5-carbonitrile]
IC50 (PI3Kδ): 27 nM
IC50 (PI3Kβ): 760 nM
IC50 (PI3Kγ): ≥ 10000 nM

C[C@H](Nc1ncnc(N)c1C#N)c1nc2cccc(Cl)c2c(=O)n1CC1CCNCC1 [Compound 87, (S)-4-amino-6-((1-(5-chloro-4-oxo-3-(piperidin-4-ylmethyl)-3,4-dihydroquinazolin-2-yl)ethyl)amino)pyrimidine-5-carbonitrile]
IC50 (PI3Kδ): 4 nM
IC50 (PI3Kβ): 150 nM
IC50 (PI3Kγ): ≥ 10000 nM

C[C@H](Nc1ncnn2ccnc12)c1nc2cccc(Cl)c2c(=O)n1CCCN [Compound 71, (S)-3-(3-aminopropyl)-5-chloro-2-(1-(imidazo[2,1-f][1,2,4]triazin-4-ylamino)ethyl)quinazolin-4(3H)-one]
IC50 (PI3Kδ): 34 nM
IC50 (PI3Kβ): 240 nM
IC50 (PI3Kγ): ≥ 10000 nM

CS(=O)(=O)CCCn1c([C@@H](Nc2nc(N)nc(N)c2C#N)C2CC2)nc2c(Cl)cc(F)cc2c1=O [Compound 120, (S)-2,4-diamino-6-(((8-chloro-6-fluoro-3-(3-(methylsulfonyl)propyl)-4-oxo-3,4-dihydroquinazolin-2-yl)(cyclopropyl)methyl)amino)pyrimidine-5-carbonitrile]
IC50 (PI3Kδ): 8 nM
IC50 (PI3Kβ): 30 nM
IC50 (PI3Kγ): 1900 nM

COCCCn1c([C@H](C)Nc2nc(N)nc(N)c2C#N)nc2c(F)ccc(F)c2c1=O [Compound 109, (S)-2,4-diamino-6-((1-(5,8-difluoro-3-(3-methoxypropyl)-4-oxo-3,4-dihydroquinazolin-2-yl)ethyl)amino)pyrimidine-5-carbonitrile]
IC50 (PI3Kδ): 14 nM
IC50 (PI3Kβ): 520 nM
IC50 (PI3Kγ): 2180 nM

C[C@H](Nc1nc(N)nc(N)c1C#N)c1nc2cccc(Cl)c2c(=O)n1CCCN1CCOCC1 [Compound 127, (S)-2,4-diamino-6-((1-(5-chloro-3-(3-morpholinopropyl)-4-oxo-3,4-dihydroquinazolin-2-yl)ethyl)amino)pyrimidine-5-carbonitrile]
IC50 (PI3Kδ): 2 nM
IC50 (PI3Kβ): 130 nM
IC50 (PI3Kγ): 720 nM

C[C@H](Nc1ncnc(N)c1C#N)c1nc2cccc(Cl)c2c(=O)n1C[C@H](O)CO [Compound 143]
IC50 (PI3Kδ): 34 nM
IC50 (PI3Kβ): 374 nM
IC50 (PI3Kγ): 4240 nM

CC(CN)n1c([C@H](C)Nc2ncnc(N)c2C#N)nc2cccc(Cl)c2c1=O (stereo partly drawn) [Compound 25, 4-amino-6-(((1S)-1-(3-(1-aminopropan-2-yl)-5-chloro-4-oxo-3,4-dihydroquinazolin-2-yl)ethyl)amino)pyrimidine-5-carbonitrile]
IC50 (PI3Kδ): 100 nM
IC50 (PI3Kβ): 1300 nM
IC50 (PI3Kγ): ≥ 10000 nM

C[C@H](Nc1nc(N)nc(N)c1C#N)c1nc2cccc(Cl)c2c(=O)n1[C@H]1C[C@@H](O)C1 [Compound 93, 2,4-diamino-6-(((S)-1-(5-chloro-3-((cis)-3-hydroxycyclobutyl)-4-oxo-3,4-dihydroquinazolin-2-yl)ethyl)amino)pyrimidine-5-carbonitrile]
IC50 (PI3Kδ): 1 nM
IC50 (PI3Kβ): 4 nM
IC50 (PI3Kγ): 158 nM

C[C@H](Nc1ncnn2ccnc12)c1nc2cccc(Cl)c2c(=O)n1Cc1cc[nH]n1 [Compound 78, (S)-3-((1H-pyrazol-3-yl)methyl)-5-chloro-2-(1-(imidazo[2,1-f][1,2,4]triazin-4-ylamino)ethyl)quinazolin-4(3H)-one]
IC50 (PI3Kδ): 49 nM
IC50 (PI3Kβ): 920 nM
IC50 (PI3Kγ): 3000 nM

C[C@H](Nc1nc(N)nc(N)c1C#N)c1nc2c(Cl)ccc(Cl)c2c(=O)n1[C@H]1C[C@@H](O)C1 [Compound 103, 2,4-diamino-6-(((S)-1-(5,8-dichloro-3-((cis)-3-hydroxycyclobutyl)-4-oxo-3,4-dihydroquinazolin-2-yl)ethyl)amino)pyrimidine-5-carbonitrile]
IC50 (PI3Kδ): 5 nM
IC50 (PI3Kβ): 21 nM
IC50 (PI3Kγ): 2600 nM

N#Cc1c(Cl)nc(N)nc1N[C@H](c1nc2cccc(Cl)c2c(=O)n1CCCN)C1CC1 [Compound 44, (S)-2-amino-4-(((3-(3-aminopropyl)-5-chloro-4-oxo-3,4-dihydroquinazolin-2-yl)(cyclopropyl)methyl)amino)-6-chloropyrimidine-5-carbonitrile]
IC50 (PI3Kδ): 11 nM
IC50 (PI3Kβ): 8 nM
IC50 (PI3Kγ): 6000 nM

C[C@H](Nc1nc(N)nc(N)c1C#N)c1nc2cccc(Cl)c2c(=O)n1N(C)CCN [Compound 14, (S)-2,4-diamino-6-((1-(3-((2-aminoethyl)(methyl)amino)-5-chloro-4-oxo-3,4-dihydroquinazolin-2-yl)ethyl)amino)pyrimidine-5-carbonitrile]
IC50 (PI3Kδ): 2 nM
IC50 (PI3Kβ): 9 nM
IC50 (PI3Kγ): 1900 nM
